From US8449898B2 (priority 2007, dated 2013)
Like-named read-outs stand apart in the source and are kept apart here.

Key:
[1] = tested on: Phytophthora infestans (the causal agent of tomato late blight); test: whole plant or invertebrate; assay type: in vivo; details: for TLB Obsd: Table D; for TLB Obsd (observed effect, tomato late blight): component (b) alone
[2] = tested on: Pseudoperonospora cubensis (the causal agent of cucumber downy mildew); test: Test B: cucumber downy mildew, preventive spray on cucumber seedlings; assay type: in vivo

O=C1c2ccccc2C(=O)N1SC(Cl)(Cl)Cl [folpet]
pest or weed control at 0.4 ppm ([1]; Phytophthora infestans, read-out: TLB Obsd (disease control rating), Table C, component (b) alone 0.4 ppm): 0%
pest or weed control at 2 ppm ([1]; Phytophthora infestans, read-out: TLB Obsd (disease control rating), Table C, component (b) alone 2 ppm): 9%
pest or weed control at 10 ppm ([1]; Phytophthora infestans, read-out: TLB Obsd (disease control rating), Table C, component (b) alone 10 ppm): 9%
pest or weed control at 40 ppm ([1]; Phytophthora infestans, read-out: TLB Obsd (disease control rating), Table C, component (b) alone 40 ppm): 24%
pest or weed control at 200 ppm ([1]; Phytophthora infestans, read-out: TLB Obsd (disease control rating), Table C, component (b) alone 200 ppm): 75%
pest or weed control at 0.04 ppm ([1]; Phytophthora infestans, read-out: TLB Obsd (observed effect, tomato late blight), component (b) alone, 0.04 ppm): 0%
pest or weed control at 2 ppm ([1]; Phytophthora infestans, read-out: TLB Obsd (observed effect, tomato late blight), component (b) alone, 2 ppm): 8%
pest or weed control at 10 ppm ([1]; Phytophthora infestans, read-out: TLB Obsd (observed effect, tomato late blight), component (b) alone, 10 ppm): 31%
pest or weed control at 40 ppm ([1]; Phytophthora infestans, read-out: TLB Obsd (observed effect, tomato late blight), component (b) alone, 40 ppm): 46%
pest or weed control at 200 ppm ([1]; Phytophthora infestans, read-out: TLB Obsd (observed effect, tomato late blight), component (b) alone, 200 ppm): 93%
pest or weed control at 0.4 ppm ([2]; Pseudoperonospora cubensis, Table C, component (b) alone 0.4 ppm, read-out: CDM Obsd (disease control rating)): 47%
pest or weed control at 2 ppm ([2]; Pseudoperonospora cubensis, Table C, component (b) alone 2 ppm, read-out: CDM Obsd (disease control rating)): 47%
pest or weed control at 10 ppm ([2]; Pseudoperonospora cubensis, Table C, component (b) alone 10 ppm, read-out: CDM Obsd (disease control rating)): 47%
pest or weed control at 40 ppm ([2]; Pseudoperonospora cubensis, Table C, component (b) alone 40 ppm, read-out: CDM Obsd (disease control rating)): 92%
pest or weed control at 200 ppm ([2]; Pseudoperonospora cubensis, Table C, component (b) alone 200 ppm, read-out: CDM Obsd (disease control rating)): 95%
pest or weed control at 0.4 µg/mL ([2]; Pseudoperonospora cubensis, component (b) alone 0.4 ppm (Compound 1 0 ppm), read-out: CDM Obsd): 47%
pest or weed control at 2 µg/mL ([2]; Pseudoperonospora cubensis, component (b) alone 2 ppm (Compound 1 0 ppm), read-out: CDM Obsd): 47%
pest or weed control at 10 µg/mL ([2]; Pseudoperonospora cubensis, component (b) alone 10 ppm (Compound 1 0 ppm), read-out: CDM Obsd): 47%
pest or weed control at 40 µg/mL ([2]; Pseudoperonospora cubensis, component (b) alone 40 ppm (Compound 1 0 ppm), read-out: CDM Obsd): 47%
pest or weed control at 200 µg/mL ([2]; Pseudoperonospora cubensis, component (b) alone 200 ppm (Compound 1 0 ppm), read-out: CDM Obsd): 88%
pest or weed control at 0.04 ppm ([2]; Pseudoperonospora cubensis, component (b) alone, 0.04 ppm, read-out: CDM Obsd (observed effect, cucumber downy mildew)): 0%
pest or weed control at 2 ppm ([2]; Pseudoperonospora cubensis, component (b) alone, 2 ppm, read-out: CDM Obsd (observed effect, cucumber downy mildew)): 0%
pest or weed control at 10 ppm ([2]; Pseudoperonospora cubensis, component (b) alone, 10 ppm, read-out: CDM Obsd (observed effect, cucumber downy mildew)): 44%
pest or weed control at 40 ppm ([2]; Pseudoperonospora cubensis, component (b) alone, 40 ppm, read-out: CDM Obsd (observed effect, cucumber downy mildew)): 74%
pest or weed control at 200 ppm ([2]; Pseudoperonospora cubensis, component (b) alone, 200 ppm, read-out: CDM Obsd (observed effect, cucumber downy mildew)): 87%

CCO[PH](=O)O [fosetyl-aluminum]
TLB Obsd ([1]; component (b) alone at 10 ppm): 0%
TLB Obsd ([1]; component (b) alone at 40 ppm): 20%
TLB Obsd ([1]; component (b) alone at 200 ppm): 65%
TLB Obsd ([1]; component (b) alone at 1000 ppm): 97%
TLB Obsd ([1]; component (b) alone at 2000 ppm): 100%
TLB Obsd (observed effect, tomato late blight) ([1]; 10 ppm): 0
TLB Obsd (observed effect, tomato late blight) ([1]; 40 ppm): 0
TLB Obsd (observed effect, tomato late blight) ([1]; 200 ppm): 50
TLB Obsd (observed effect, tomato late blight) ([1]; 1000 ppm): 99
TLB Obsd (observed effect, tomato late blight) ([1]; 2000 ppm): 100
CDM Obsd ([2]; Table D, component (b) alone at 10 ppm): 47%
CDM Obsd ([2]; Table D, component (b) alone at 40 ppm): 47%
CDM Obsd ([2]; Table D, component (b) alone at 200 ppm): 47%
CDM Obsd ([2]; Table D, component (b) alone at 1000 ppm): 98%
CDM Obsd ([2]; Table D, component (b) alone at 2000 ppm): 100%
CDM Obsd ([2]; component (b) alone 10 ppm (Compound 1 0 ppm)): 47%
CDM Obsd ([2]; component (b) alone 40 ppm (Compound 1 0 ppm)): 47%
CDM Obsd ([2]; component (b) alone 200 ppm (Compound 1 0 ppm)): 63%
CDM Obsd ([2]; component (b) alone 1000 ppm (Compound 1 0 ppm)): 98%
CDM Obsd ([2]; component (b) alone 2000 ppm (Compound 1 0 ppm)): 100%
CDM Obsd (observed effect, cucumber downy mildew) ([2]; component (b) alone, 10 ppm): 0
CDM Obsd (observed effect, cucumber downy mildew) ([2]; component (b) alone, 40 ppm): 0
CDM Obsd (observed effect, cucumber downy mildew) ([2]; component (b) alone, 200 ppm): 0
CDM Obsd (observed effect, cucumber downy mildew) ([2]; component (b) alone, 1000 ppm): 68
CDM Obsd (observed effect, cucumber downy mildew) ([2]; component (b) alone, 2000 ppm): 73
